Literature values in patent publication US8409637B2, “Compositions and methods for treating and preventing migrainous headaches and associated symptoms” (Puramed Bioscience Inc., priority 2007, dated 2013).

Columns and labels:
COX-2 = target: T1, COX-2 (Homo sapiens, UniProt P35354)
T1 sequence (P35354 18-604): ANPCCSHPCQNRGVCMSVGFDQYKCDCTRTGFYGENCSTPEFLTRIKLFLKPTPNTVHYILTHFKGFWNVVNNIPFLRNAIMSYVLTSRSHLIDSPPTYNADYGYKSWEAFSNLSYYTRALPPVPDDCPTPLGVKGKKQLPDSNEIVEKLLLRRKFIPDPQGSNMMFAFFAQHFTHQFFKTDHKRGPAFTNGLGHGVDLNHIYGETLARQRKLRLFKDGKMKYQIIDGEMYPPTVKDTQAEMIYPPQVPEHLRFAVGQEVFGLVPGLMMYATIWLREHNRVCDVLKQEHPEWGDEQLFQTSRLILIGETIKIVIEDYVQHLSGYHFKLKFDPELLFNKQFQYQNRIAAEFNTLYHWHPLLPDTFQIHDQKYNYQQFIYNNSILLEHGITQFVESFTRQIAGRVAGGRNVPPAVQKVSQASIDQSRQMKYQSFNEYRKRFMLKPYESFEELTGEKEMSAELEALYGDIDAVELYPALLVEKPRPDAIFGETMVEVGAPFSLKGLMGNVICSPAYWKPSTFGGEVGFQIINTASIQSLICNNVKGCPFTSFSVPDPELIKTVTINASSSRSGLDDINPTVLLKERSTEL

Inhibition of COX-1 enzyme activity (COX-1): inhibits
Inhibition of COX-2 enzyme activity (COX-2): inhibits
Compound: C/C=C(/C=O)[C@@H](CC=O)CC(=O)OCCc1ccc(O)cc1 [oleocanthal]
